From publication PMC12095705, “Diversity and enzymatic activity of Polish beehive products microbiota, and characterization of a novel β-galactosidase from Paenibacillus sp. 8” (Scientific Reports, 2025)

Target: T1, BgaP β-galactosidase
T1 construct: recombinant full-length, 675 amino acids (GenBank XED97098)
Experiment: inhibition of ONPG hydrolysis by purified enzyme, […] °C, pH […]; Lineweaver-Burk
Format: biochemical, Paenibacillus sp. 8

| Structure (SMILES) | Ki [mM] |
| --- | --- |
| OC[C@H]1OC(O)[C@H](O)[C@@H](O)[C@@H]1O (some centres unmarked) [glucose] | 27.3 |
| OC[C@H]1OC(O)[C@H](O)[C@@H](O)[C@H]1O (some centres unmarked) [galactose] | 6.99 |
